# Reference: US7626042B2, “O-substituted hydroxyaryl derivatives” (Institute of Medicinal Molecular Design, Inc., priority 2002, dated 2009)
# System: NF-κB activation
# Test: Inhibitory activity against NF-κB activation, luciferase reporter assay under TNF-α stimulation
# Format: cell-based, human
# Conditions: HepG2 cells, TNF-α 40 ng/ml, 4 hours
# Outline: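 HepG2 cells transfected with firefly luciferase reporter carrying five tandem NF-κB sites, incubated 6 to 24 hours, then cultured 4 hours with TNF-α (40 ng/ml) plus test compound. Luminescent luciferase read-out; inhibition expressed relative to activity without compound.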
Structure (SMILES),Inhibitory Ratio of NF-κ B Activation(%) (Drug Concentration 1 μg/mL),Inhibitory Ratio of NF-κ B Activation(%) (Drug Concentration 10 μg/mL),"inhibition at 1 µg/mL (Homo sapiens, Drug Concentration 1 μg/mL, read-out: Inhibitory Ratio of NF-κ B Activation(%))"
O=C(Nc1cc(C(F)(F)F)ccc1C(F)(F)F)c1cc(Cl)ccc1OP(=O)([O-])O.[Na+] [Compound 122],>99.9%,>99.9%,–
O=C(Nc1cc(C(F)(F)F)ccc1Cl)c1cc(Cl)ccc1OP(=O)([O-])O.[Na+] [Compound 125],>99.9%,>99.9%,–
CC(C)(C)C(=O)c1sc(NC(=O)c2cc(Cl)ccc2OP(=O)([O-])O)nc1C(C)(C)C.[Na+] [Compound 128],>99.9%,>99.9%,–
"O=C(Nc1cc(C(F)(F)F)ccc1C(F)(F)F)c1cc(Br)cc(Br)c1OC(=O)N1CCOCC1 [Compound 130, 3,5-Dibromo-2-(morpholinocarbonyl)oxy-N-[2,5-bis(trifluoromethyl)phenyl]-benzamide]",–,–,18.9%
O=C(Oc1ccccc1C(=O)Nc1cc(C(F)(F)F)ccc1C(F)(F)F)c1ccccc1O [Compound 131],>99.9%,–,–
O=C(Nc1cc(C(F)(F)F)ccc1C(F)(F)F)c1ccccc1OC(=O)N1CCOCC1 [Compound 132],32.3%,–,–
O=C(Nc1cc(C(F)(F)F)ccc1Cl)c1cc(Br)ccc1OP(=O)([O-])O.[Na+] [Compound 136],>99.9%,–,–
CC(C)(C)c1ccc(OP(=O)([O-])O)c(C(=O)Nc2cc(C(F)(F)F)cc(C(F)(F)F)c2)c1.[Na+] [Compound 139],64.3%,–,–
O=C(Nc1cc(C(F)(F)F)ccc1C(F)(F)F)c1cc(Br)ccc1OP(=O)([O-])O.[Na+] [Compound 142],>99.9%,–,–
CC(C)(C)c1cc(NC(=O)c2cc(Br)ccc2OP(=O)([O-])O)cc(C(C)(C)C)c1.[Na+] [Compound 145],93.1%,–,–
COc1cc(NC(=O)c2cc(Br)ccc2OP(=O)([O-])O)cc(C(F)(F)F)c1.[Na+] [Compound 149],>99.9%,–,–
